In patent EP4026700A1, “INPRINTING” (Smart Coloring GmbH, priority 2021, dated 2022):

Experiment: Solubility in double distilled water
Assay type: physicochemical

Disperse Blue 56
solubility in double distilled water: about 14 mg/l
